# Reference: US7498438B2, “Fused ring NK1 antagonists” (Schering Corporation, priority 2004, dated 2009)
# Molecular target: NK1 receptor (Homo sapiens, UniProt P25103)
# Experiment: NK1 receptor binding: inhibition of Substance P binding, Ki by the Chang-Prusoff equation
# From the text: The in vitro and in vivo NK1, NK2 and NK3 activities of the compounds of Formula 1 can be determined by various procedures known in the art, such as a test for their ability to inhibit the activity of the NK1 agonist Substance P. The percent inhibition of neurokinin agonist activity is the difference between the percent of maximum specific binding (“MSB”) and 100%. The percent of MSB is defined by the following equation, wherein “dpm” represents “disintegrations per minute”:
# [formula] The concentration at which the compound produces 50% inhibition of binding is then used to determine an inhibition constant (“Ki”) using the Chang-Prusoff equation.
# The activities (potencies) for the compounds of the invention are determined by measuring their Ki values. […] Even more preferred are compounds having average Ki values of from 0.01 nM to about 10 nM for the NK1 receptor. Especially preferred compounds have NK1 average Ki values of from 0.01 nM to about 3 nM. Even more especially preferred compounds have NK1 average Ki values of from 0.01 nM to about 0.3 nM.
# Chain of NK1 receptor (P25103 whole entry, species assumed): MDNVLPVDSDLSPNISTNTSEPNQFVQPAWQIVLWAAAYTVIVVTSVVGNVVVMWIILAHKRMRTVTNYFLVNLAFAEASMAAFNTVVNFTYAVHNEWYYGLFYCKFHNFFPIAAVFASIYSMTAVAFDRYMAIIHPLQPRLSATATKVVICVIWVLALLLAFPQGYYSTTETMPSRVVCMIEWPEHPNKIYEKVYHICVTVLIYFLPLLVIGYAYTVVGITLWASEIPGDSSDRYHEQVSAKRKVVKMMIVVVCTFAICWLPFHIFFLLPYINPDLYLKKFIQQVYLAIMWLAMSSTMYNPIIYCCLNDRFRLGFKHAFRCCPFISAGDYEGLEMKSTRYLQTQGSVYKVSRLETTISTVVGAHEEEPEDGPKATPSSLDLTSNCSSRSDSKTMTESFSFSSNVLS
row,SMILES,Ki [nM]
1,C[C@@H](OC[C@@]1(c2ccccc2)C[C@H]2NC(=O)NC2CN1)c1cc(C(F)(F)F)cc(C(F)(F)F)c1 (some centres unmarked) [Compound 1a],0.23
2,"C[C@@H](OC[C@@]1(c2ccccc2)CCC2OC(=O)NC2N1)c1cc(C(F)(F)F)cc(C(F)(F)F)c1 (single isomer, unassigned) [Compound 4b]",0.32
3,C[C@@H](OC[C@@]1(c2ccccc2)CC[C@@H]2NC(=O)CC2N1)c1cc(C(F)(F)F)cc(C(F)(F)F)c1 (some centres unmarked) [Compound 5a],0.23
4,"C[C@@H](OC[C@@]1(c2ccccc2)CCC2OC(=O)NC2N1)c1cc(C(F)(F)F)cc(C(F)(F)F)c1 (single isomer, unassigned) [Compound 4a]",0.62

# Continued, values first:
row,Ki [nM],SMILES
1,0.28,C[C@@H](OC[C@@]1(c2ccccc2)C[C@H]2OC(=O)NC2CN1)c1cc(C(F)(F)F)cc(C(F)(F)F)c1 (some centres unmarked) [Compound 9a]
2,0.14,C[C@@H](OC[C@@]1(c2ccccc2)CC[C@@H]2NC(=O)OCCC2N1)c1cc(C(F)(F)F)cc(C(F)(F)F)c1 (some centres unmarked) [Compound 6a]
3,0.36,C[C@@H](OC[C@@]1(c2ccccc2)CC[C@@H]2NC(=O)NCC2N1)c1cc(C(F)(F)F)cc(C(F)(F)F)c1 (some centres unmarked) [Compound 8]
4,0.3,C[C@@H](OC[C@@]1(c2ccccc2)CC[C@@H]2NC(=O)CCC2N1)c1cc(C(F)(F)F)cc(C(F)(F)F)c1 (some centres unmarked) [Compound 7]
